In the supplement of paper PMC12420376:

How the values were obtained:
[1] = test system: OVCAR8; assay: drug sensitivity score (DSS2) on cancer cell count; higher = more sensitive; extreme values may be limits of the assay; conditions: 72 h
Method in brief: (§1)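 Ovarian cancer cells were grown alone or in 1:1 direct co-culture with lung or skin fibroblasts. They were plated onto 384-well plates pre-spotted acoustically with 528 approved and investigational compounds at 5 concentrations, then treated for 72 h. Cells were fixed, immunostained for CK8/18 with Hoechst, and imaged at 10× (4 fields) to count cancer cells. A drug sensitivity score (DSS2) was derived in Breeze from 4-parameter logistic fits, with screen quality checked by Z'.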

[2] = test system: KURAMOCHI; assay: as above; conditions: 72 h
Method in brief: as §1

[3] = co-cultured fibroblast: BJHTERT
[4] = co-cultured fibroblast: none (monoculture)

Compound	drug sensitivity score [1, 3] [DSS]	drug sensitivity score ([1]; co-cultured fibroblast: WI38) [DSS]	drug sensitivity score [1, 4] [DSS]	drug sensitivity score [2, 3] [DSS]	drug sensitivity score ([2]; co-cultured fibroblast: WI38) [DSS]	drug sensitivity score [2, 4] [DSS]
CC[C@H](NC(=O)[C@H](C)NC)C(=O)N1C[C@@H](O)C[C@H]1Cc1c(-c2[nH]c3cc(F)ccc3c2C[C@@H]2C[C@H](O)CN2C(=O)[C@H](CC)NC(=O)[C@H](C)NC)[nH]c2cc(F)ccc12 [Birinapant]	15.9	12.9	5.4	3.3	0	3.7
CCOc1ccn(-c2ccc(F)cc2)c(=O)c1C(=O)Nc1ccc(Oc2ccnc(N)c2Cl)c(F)c1	0	0	0	0.6	0	0
O=C(O)c1ccc2c(c1)nc(Nc1cccc(Cl)c1)c1ccncc12 [Silmitasertib]	2	0	3	4.1	3.4	0.8
COC(=O)c1ccc2c(c1)[nH]c1ncnc(NCCCN3CCCCC3)c12 [UM729]	6.9	1.1	3.5	1.1	0	4.1
Clc1ccccc1C(c1ccccc1)(c1ccccc1)n1cccn1 [TRAM-34]	0	0	0	0	0	0
Cn1c(=O)n(-c2ccc(C(C)(C)C#N)cc2)c2c3cc(-c4cnc5ccccc5c4)ccc3ncc21 [Dactolisib]	13.3	8.2	17.6	12.4	15.5	20.5
NCC(=O)Nc1ccc(-n2nc(C(F)(F)F)cc2-c2ccc3c(ccc4ccccc43)c2)cc1	0	0	9.7	2.6	4.1	8
Cc1ccc(-c2cc(C(F)(F)F)nn2-c2ccc(S(N)(=O)=O)cc2)cc1 [Celecoxib]	0.1	0	0.1	0	0	0.5
Nc1ccn([C@@H]2O[C@H](CO)[C@@H](O)C2(F)F)c(=O)n1 [Gemcitabine]	29.5	27.2	26.3	18.4	25.2	26.7
CCCS(=O)(=O)Nc1ccc(F)c(C(=O)c2c[nH]c3ncc(-c4ccc(Cl)cc4)cc23)c1F [Vemurafenib]	0	1.1	1.3	0	0	0.8
N.N.[Cl][Pt][Cl] [Cisplatin]	7.2	9.4	8.5	1.6	6.5	4.7
CC(=O)O[C@]1(C(C)=O)CC[C@H]2[C@@H]3C=C(C)C4=CC(=O)CC[C@]4(C)[C@H]3CC[C@@]21C [Megestrol acetate]	0	0	0	0	6	0
CN(C)CC#Cc1ccc(OCCCc2sc(N3CCc4cccc(C(=O)Nc5nc6ccccc6s5)c4C3)nc2C(=O)O)c(F)c1	4.3	0	0.7	4.1	6.1	6.9
Cn1nnc2c(C(N)=O)ncn2c1=O [Temozolomide]	0	0	9.8	0	2.2	9.1
C=CC(=O)Nc1cc(Nc2nccc(-c3cn(C)c4ccccc34)n2)c(OC)cc1N(C)CCN(C)C [Osimertinib]	6.8	0.6	3.7	10.7	6.8	10.7
CON(C)C(=O)N1N=C(c2cc(F)ccc2F)S[C@@]1(CCCN)c1ccccc1 [Filanesib]	21.9	32.9	29.3	21.4	22.4	16.2
CCC1=C[C@@H]2CN(C1)Cc1c([nH]c3ccccc13)[C@@](C(=O)OC)(c1cc3c(cc1OC)N(C)[C@H]1[C@@](O)(C(=O)OC)[C@H](OC(C)=O)[C@]4(CC)C=CCN5CC[C@]31[C@@H]54)C2 [Vinorelbine]	38.8	33	29.3	29.3	25.7	25.6
O=C1NC(=O)[C@@H](c2cn3c4c(cccc24)CCC3)[C@@H]1c1c[nH]c2ccccc12 [Tivantinib]	4	6.4	3.8	5.4	5.9	14
COc1cc2c(cc1-c1c(C)noc1C)ncc1[nH]c(=O)n([C@H](C)c3ccccn3)c12 [I-BET151]	14.1	4	15.9	9.5	9.4	6.3
COc1ccc2[nH]cc(/C=C3\C(=O)Nc4ccc(NC(=O)CCN5CCCCC5)cc43)c2c1	4	9.8	8.6	7.6	9.6	9.2
CC(C)c1cc(C(=O)N2Cc3ccc(CN4CCN(C)CC4)cc3C2)c(O)cc1O [Onalespib]	17.4	18.5	23.5	13	14.6	14.9
Nc1nc(Cl)nc2c1ncn2[C@H]1C[C@H](O)[C@@H](CO)O1 [Cladribine]	14.7	20.7	15.7	5.2	6.7	1.4
O=c1[nH]c(=O)n([C@H]2C[C@H](O)[C@@H](CO)O2)cc1F [Floxuridine]	18.7	17.9	26.7	19.9	19	20.7
Cc1nc(Nc2n[nH]c3c2CN(C(=O)N[C@H](CN(C)C)c2ccccc2)C3(C)C)c2sccc2n1	20.8	9.4	15.5	21	24.6	19.4
C=CC(=O)N1CCC[C@@H](n2nc(-c3ccc(Oc4ccccc4)cc3)c3c(N)ncnc32)C1 [Ibrutinib]	1.1	0	0	3.1	3	0
C=CC(=O)Nc1cccc(Nc2nc(Nc3ccc(N4CCN(C(C)=O)CC4)cc3OC)ncc2C(F)(F)F)c1 [Rociletinib]	6.7	4.1	8.1	5.8	4.6	3.7

Compound	drug sensitivity score [1, 3] [DSS]	drug sensitivity score ([1]; co-cultured fibroblast: WI38) [DSS]	drug sensitivity score [1, 4] [DSS]	drug sensitivity score [2, 3] [DSS]	drug sensitivity score ([2]; co-cultured fibroblast: WI38) [DSS]	drug sensitivity score [2, 4] [DSS]
Cc1cccc(-c2nn3c(c2-c2ccnc4ccc(C(N)=O)cc24)CCC3)n1 [Galunisertib]	0	0	0	3.4	0	13.8
O=C(c1cc(Cc2n[nH]c(=O)c3ccccc23)ccc1F)N1CCN(C(=O)C2CC2)CC1 [Olaparib]	12.5	6.9	9	4.6	7.3	11.4
N#CCNC(=O)c1ccc(-c2ccnc(Nc3ccc(N4CCOCC4)cc3)n2)cc1 [Momelotinib]	11.3	10.9	10.1	7.5	10.1	7.6
O=C1CN2Cc3c(ccc(Cl)c3Cl)N=C2N1 [Anagrelide]	0	11.9	0	0	0	0
COc1cccc2c1C(=O)c1c(O)c3c(c(O)c1C2=O)C[C@@](O)(C(=O)CO)C[C@@H]3O[C@H]1C[C@H](N)[C@H](O)[C@H](C)O1 [Doxorubicin]	12.5	12.3	12.1	10.7	12.7	25.1
O=C(O)c1ccc(CN2CCC(CN[C@@H]3C[C@H]3c3ccccc3)CC2)cc1	0	0	2.2	0.9	0	0
Cc1cccc(CC(=O)N2CCc3c2ccc(-c2cn(C)c4ncnc(N)c24)c3F)n1	1.4	0	0	0.3	0	0
Oc1ncnc2[nH]ncc12 [Allopurinol]	0	0	0	0	0	0
CC(=O)O[C@@]12CO[C@@H]1C[C@H](O)[C@@]1(C)C(=O)[C@H](O)C3=C(C)[C@@H](OC(=O)[C@H](O)[C@@H](NC(=O)OC(C)(C)C)c4ccccc4)C[C@@](O)([C@@H](OC(=O)c4ccccc4)[C@H]21)C3(C)C [Docetaxel]	31.8	31.9	28.3	27.4	26.2	21.1
O=c1[nH]cc(F)c(=O)[nH]1 [Fluorouracil]	1.3	1.4	5.5	2.3	5.4	5
CN1CCc2c(c3ccccc3n2Cc2ccc(C(=O)NO)cc2)C1 [Tubastatin A]	0	4.3	5.2	0	3.3	4.6
O=C1Cc2cc(C(=O)NC3C[C@H]4CC[C@@H](C3)N4S(=O)(=O)CC3CCN(CCCC(F)(F)F)CC3)c(Cl)cc2N1 (some centres not stated)	0	0	0	0	0.1	0
O=c1sn(-c2cccc3ccccc23)c(=O)n1Cc1ccccc1 [Tideglusib]	0.4	1.5	0	0	0	0
CN(C)Cc1ccc(S(=O)(=O)n2ccc(/C=C/C(=O)NO)c2)cc1 [Resminostat]	18.3	12.8	15	11	10	10.4
CCNC(=O)c1noc(-c2cc(C(C)C)c(O)cc2O)c1-c1ccc(CN2CCOCC2)cc1 [Luminespib]	28.3	29.8	29.9	19.7	20.9	22.9
CCn1c(-c2nonc2N)nc2cnc(Oc3cccc(NC(=O)c4ccc(OCCN5CCOCC5)cc4)c3)cc21	10.9	31.2	18.4	4.2	5.2	4.2
Cc1cc2c(F)c(Oc3ncnn4cc(OC[C@@H](C)O)c(C)c34)ccc2[nH]1 [Brivanib]	0	0	0	0	0	0
COc1ccc(-c2nc(N3CCOCC3)c3sc(CN(C)c4ncc(C(=O)NO)cn4)cc3n2)cn1 [CUDC-907]	43.2	41.7	30	34.1	28.6	29.7
COc1cccc2c1C(=O)c1c(O)c3c(c(O)c1C2=O)C[C@@](O)(C(C)=O)C[C@@H]3O[C@H]1C[C@H](N)[C@H](O)[C@H](C)O1 [Daunorubicin]	14.7	15.9	15.1	11.9	14.6	13.9
CC(C)(C)C[C@@H]1N[C@@H](C(=O)N[C@H]2CC[C@H](O)CC2)[C@H](c2cccc(Cl)c2F)[C@]12C(=O)Nc1cc(Cl)ccc12	2.5	0	0	0	0.1	0
COCCNCc1ccc(-c2cc3nccc(Oc4ccc(NC(=O)C5(C(=O)Nc6ccc(F)cc6)CC5)cc4F)c3s2)nc1 [Sitravatinib]	0	1.6	1.8	3.1	5.8	0
COC(=O)C[C@](O)(CCCC(C)(C)O)C(=O)O[C@@H]1C(OC)=C[C@]23CCCN2CCc2cc4c(cc2[C@H]13)OCO4 [Omacetaxine]	29.3	30.1	29.8	23.8	24.5	30.6
Cn1cnc2c(F)c(Nc3ccc(Br)cc3Cl)c(C(=O)NOCCO)cc21 [Selumetinib]	6.1	0	7.8	15.5	6.4	20.1
CC[C@H](C)C(=O)O[C@H]1C[C@@H](C)C=C2C=C[C@H](C)[C@H](CC[C@@H]3C[C@@H](O)CC(=O)O3)[C@H]21 [Lovastatin]	1.7	8.4	2.1	0.3	3.4	5.4
CNC(=O)c1cccc2cc(Oc3ccnc4cc(OCC5(N)CC5)c(OC)cc34)ccc12 [Lucitanib]	3.3	6	3.4	4.3	4.3	2.4
C=C(c1ccc(C(=O)O)cc1)c1cc2c(cc1C)C(C)(C)CCC2(C)C [Bexarotene]	0	0	0	0.4	0	15.5
